The results in this text go back to the Deep4Chem optical property database.

The data set is described as follows: solvent given as SMILES.

In the case of `Cc1cc(C)c(-c2nnc(-c3ccc(-n4c5ccccc5c5ccccc54)cc3)o2)c(C)c1`, for the setting “in CCO”, the fluorescence lifetime is 2.1 ns.
For the compound `c1ccc(N2c3ccc4ccccc4c3-c3c4ccccc4nc[n+]3[B-]2(c2ccccc2)c2ccccc2)cc1`, the fluorescence lifetime turned out to be 3.42 ns (in C1CCC2CCCCC2C1); 3.43 ns (in C1CCCCC1); 0.54 ns (in C1CCOC1); 0.21 ns (in CC#N); 0.21 ns (in CC(C)=O); 3.4 ns (in CCCCCC). Besides, the fluorescence lifetime reads like this: (in CCOC(C)=O) 0.57 ns; (in Cc1ccccc1) 1.56 ns; (in ClC(Cl)Cl) 0.49 ns.
Under “in ClCCl”, `O=c1c2cccc3cccc(c32)c2nc3c4ccccc4c4ccccc4c3n12` had a fluorescence lifetime of 5.5 ns.
Turning to `c1ccc2nc3cccc(-c4ccc(-n5c6ccccc6c6ccccc65)cc4)c3cc2c1`, the fluorescence lifetime reads like this: (in CC#N) 10.6 ns; (in CCCCCC) 0.2 ns; (in CCOCC) 0.2 ns; (in ClCCl) 6.68 ns.
`CC1=CC(/C=C/c2ccc([N+](C)(C)C)cc2)=[N+]2C1=C(c1ccc(C#CCO[C@@H]3O[C@H](CO)[C@@H](O)C(O)[C@H]3O)cc1)c1c(C)cc(/C=C/c3ccc([N+](C)(C)C)cc3)n1[B-]2(F)F` (stereo partly drawn): the fluorescence lifetime (in CC#N) came to 5.3 ns.
Consider `Cc1ccc2ccccc2c1`, for which the fluorescence lifetime (in C1CCCCC1) came to 114 ns.
With `Cc1c2oc3c(C)c(N)cc(C(=O)NC4OC(=O)C(C(C)C)N(C)C(=O)CN(C)C(=O)C5CCCN5C(=O)C(C(C)C)NC4=O)c3nc-2c(C(=O)NC2OC(=O)C(C(C)C)N(C)C(=O)CN(C)C(=O)C3CCCN3C(=O)C(C(C)C)NC2=O)c(N)c1=O` (stereo not drawn), the fluorescence lifetime reads like this: (in C1CCCCC1) 1.07 ns; (in CC#N) 1.54 ns; (in CC(=O)O) 0.49 ns; (in CC(C)=O) 0.93 ns; (in CCCCO) 1.5 ns; (in CCCCOC(C)=O) 1.1 ns. Besides, the fluorescence lifetime runs as follows: (in CCCO) 1.34 ns; (in CCN(CC)CC) 0.62 ns; (in CCO) 1.22 ns; (in CCOC(C)=O) 1.19 ns; (in CO) 0.5 ns; (in CS(C)=O) 1.8 ns. For the same compound, the fluorescence lifetime (in Cc1ccccc1) came out at 1.23 ns; the fluorescence lifetime (in ClC(Cl)Cl) came to 1.02 ns; the fluorescence lifetime (in ClCCCl) was determined as 1.16 ns; the fluorescence lifetime (in O) came out at 0.75 ns; the fluorescence lifetime (in O=[N+]([O-])c1ccccc1) is 0.37 ns; the fluorescence lifetime (in [2H]O[2H]) came out at 1.08 ns. Further, the fluorescence lifetime is 1.22 ns (in c1ccccc1) and 1.53 ns (in c1ccncc1).
For the compound `Cc1ccc2c(c1)c1cc(C)ccc1n2-c1c(-n2c3ccccc3c3ccccc32)c(C#N)c(-n2c3ccccc3c3ccccc32)c(-n2c3ccc(C)cc3c3cc(C)ccc32)c1-n1c2ccccc2c2ccccc21`, the fluorescence lifetime (in Cc1ccccc1) worked out at 5.9 ns.
In the case of `COc1ccc(C2=Cc3ccccc3P2(=O)c2ccccc2)cc1` (stereo not drawn), the fluorescence lifetime (in ClCCl) came out at 6.4 ns.
With `CCCCCCCc1ccc(C2=[N+]3C(=C4c5cc(OCC(CC)CC)c(-c6ccc(CCCCCCC)o6)n5[B-](F)(F)[n+]5c4n(c4cc(C(C)(C)C)ccc45)[B-]3(F)F)C=C2OCC(CC)CC)o1`, the fluorescence lifetime is, setting by setting: (in C1CCOC1) 0.4 ns; (in ClCCl) 0.4 ns.
`CCC1(CC)c2cc(-c3ccc(C(C)(C)C)cc3)ccc2-c2ccc(-c3ccc4c(c3)C(CC)(CC)c3cc(-c5ccc6c(c5)C(CC)(CC)c5cc(-c7ccc(C(C)(C)C)cc7)ccc5-6)ccc3-4)cc21` registered a fluorescence lifetime (in CCCCC) of 0.65 ns; a fluorescence lifetime (in CCCCCC) of 0.62 ns; a fluorescence lifetime (in CCCCCCC) of 0.61 ns; a fluorescence lifetime (in CCCCCCCC) of 0.64 ns; a fluorescence lifetime (in CCCCCCCCC) of 0.62 ns; a fluorescence lifetime (in CCCCCCCCCC) of 0.64 ns. This compound also returned a fluorescence lifetime (in CCCCCCCCCCCC) of 0.64 ns; a fluorescence lifetime (in CCCCCCCCCCCCC) of 0.65 ns; a fluorescence lifetime (in CCCCCCCCCCCCCCC) of 0.64 ns; a fluorescence lifetime (in CCCCCCCCCCCCCCCC) of 0.63 ns; a fluorescence lifetime (in CCCCCCCCCCO) of 0.64 ns; a fluorescence lifetime (in CCCCCCCCCO) of 0.64 ns. The fluorescence lifetime by setting is: (in CCCCCCCCO) 0.63 ns; (in CCCCCCCO) 0.64 ns; (in CCCCCCO) 0.64 ns; (in CCCCCO) 0.65 ns; (in CCCCO) 0.64 ns; (in CCCO) 0.65 ns. Also, the fluorescence lifetime runs as follows: (in CCO) 0.67 ns; (in CO) 0.67 ns.
Regarding `C/C=C/c1cc(OC)cc(OC)c1`, the fluorescence lifetime by setting is: (in CC#N) 2.9 ns; (in CCCCCC) 1.5 ns.
Turning to `F[B-]1(F)OC(c2cccc(Br)c2)=Cc2c3ccccc3cc[n+]21`, the fluorescence lifetime (in ClC(Cl)Cl) came out at 0.173 ns.
Take `CC1=[N+]2C(=C(NCc3ccccc3)c3ccc(C)n3[B-]2(F)F)C=C1c1cc2n(c1)[B-](F)(F)[N+]1=CC=CC1=C2c1c(C)cc(C)cc1C`: the fluorescence lifetime was found to be 2.19 ns (in C1CCCCC1) and 0.54 ns (in CCOC(C)=O).
As for `Brc1ccc(-c2nc(-c3ccc(-c4nc(-c5ccc(Br)cc5)c(-c5ccc(Br)cc5)[nH]4)cc3)[nH]c2-c2ccc(Br)cc2)cc1`, the fluorescence lifetime (in CS(C)=O) was found to be 0.55 ns.
`CCCCCCCCCCCCN1C(=O)c2c(c3ccc4cc(-c5ccc(OC)cc5)c(OC)cc4c3c3c2ccc2cc(-c4ccc(OC)cc4)c(OC)cc23)C1=O`: the fluorescence lifetime (in ClCCl) stood at 6.44 ns.
With `CN(C)c1ccc2c(c1)-c1ccccc1C2=O`, the fluorescence lifetime turned out to be 6.1 ns (in C1CCCCC1), 4.8 ns (in CC#N) and 11 ns (in c1ccccc1).
On to `Cc1ccc(C#Cc2ccc(C#Cc3ccc(C#Cc4ccccc4C#N)cc3C#N)cc2C#N)cc1`, for which, for the setting “in ClC(Cl)Cl”, the fluorescence lifetime turned out to be 1.23 ns.
`CCCCCCC(CCCCCC)N1C(=O)c2cccc3c(-c4ccc(-c5ccc(OC)cc5)cc4)ccc(c23)C1=O` gave a fluorescence lifetime (in CCCCCC) of 1.35 ns; a fluorescence lifetime (in CCCCCCCCCCCCCC) of 1.43 ns; a fluorescence lifetime (in CCCCCCCCCCCO) of 3.21 ns; a fluorescence lifetime (in CCCCO) of 1.05 ns; a fluorescence lifetime (in CN(C)C=O) of 1.91 ns; a fluorescence lifetime (in Cc1ccccc1) of 1.4 ns. Under “in ClC(Cl)Cl”, this compound registered a fluorescence lifetime of 2.93 ns.
`CCCCCCCCCCCCN1C(=O)c2c(c3ccc4cc(-c5ccc(C)cc5)c(OC)cc4c3c3c2ccc2cc(-c4ccc(C)cc4)c(OC)cc23)C1=O` had a fluorescence lifetime (in ClCCl) of 6.2 ns.
Same read-out and setting: in the case of `Cc1ccc(-c2cc(/C=C/c3ccc(N(c4ccccc4)c4ccccc4)cc3)c(-c3ccc(C)cc3)cc2/C=C/c2ccc(N(c3ccccc3)c3ccccc3)cc2)cc1` it was 1.34 ns.
Consider `COc1ccc2c(=O)c3c([nH]c2c1)-c1ccccc1NC3(C)C`, for which the fluorescence lifetime reads like this: (in C1CCOC1) 8.25 ns; (in CC#N) 9.16 ns; (in CCCCO) 10.2 ns; (in CCCO) 10.1 ns; (in CCO) 9.74 ns; (in CCOC(C)=O) 8.04 ns. Further, the fluorescence lifetime is, setting by setting: (in CN(C)C=O) 10.5 ns; (in CO) 9.35 ns; (in CS(C)=O) 11.4 ns; (in Cc1ccccc1) 7.24 ns; (in ClC(Cl)(Cl)Cl) 5.08 ns; (in ClCCl) 9.46 ns. For the same compound, the fluorescence lifetime reads like this: (in O) 7.42 ns; (in c1ccccc1) 7.52 ns.
On to `Cc1cc2ccccc2cc1C`, for which the fluorescence lifetime (in C1CCCCC1) came to 133 ns.
Regarding `CC(C)(C)c1ccc(-c2nc3c4ccc(-c5cc6ccccc6c6ccccc56)cc4c4cc(-c5cc6ccccc6c6ccccc56)ccc4c3n2-c2ccc(C(C)(C)C)cc2)cc1`, the fluorescence lifetime (in ClCCl) came to 7 ns.
Compound `N#Cc1c(-n2c3ccc(Br)cc3c3cc(Br)ccc32)c(C#N)c(-n2c3ccc(Br)cc3c3cc(Br)ccc32)c(-n2c3ccc(Br)cc3c3cc(Br)ccc32)c1-n1c2ccc(Br)cc2c2cc(Br)ccc21` came in with a fluorescence lifetime (in Cc1ccccc1) of 0.4 ns.
Compound `Cc1cccc(Nc2ccccc2C(=O)O)c1C` yielded a fluorescence lifetime (in C1CCCCC1) of 2.7 ns; a fluorescence lifetime (in C1CCOC1) of 4.91 ns; a fluorescence lifetime (in C1COCCO1) of 2.38 ns; a fluorescence lifetime (in CC#N) of 0.558 ns; a fluorescence lifetime (in CCOC(C)=O) of 2.46 ns; a fluorescence lifetime (in CN(C)C=O) of 2.22 ns.
Regarding `COc1ccc(/C=C/c2nc(N3CCOCC3)c3c([n+]2[O-])CCCC3)cc1`, the fluorescence lifetime (in ClCCl) was 8.3 ns.
Consider `O=C(O)CCCCCn1c2ccccc2c(=O)c2ccccc21`, for which the fluorescence lifetime (in O) came to 14.2 ns.
`COc1nc(Nc2cc3ccc4cccc5ccc(c2)c3c45)nc(OC)n1` had a fluorescence lifetime (in CCCCCCC) of 112 ns.
With `CCOC(=O)c1ccc2c(c1)n(C)c1c3ccc(C(=O)OCC)cc3n(C)c21`, the fluorescence lifetime (in CCCO) was found to be 7.8 ns.
`CC1=CC(/C=C/c2ccc(N(C)C)cc2)=[N+]2C1=C(c1ccc(C#CCO[C@@H]3O[C@H](CO)[C@@H](O)C(O)[C@H]3O)cc1)c1c(C)cc(/C=C/c3ccc(N(C)C)cc3)n1[B-]2(F)F` (stereo partly drawn) had a fluorescence lifetime (in CC#N) of 2.3 ns.
Where the note is “in C1CCOC1”, `CC(=O)c1ccc(-c2ccc3c(c2)C(=O)c2cc(-c4ccc(C(C)=O)cc4)ccc2-3)cc1` showed a fluorescence lifetime of 1.2 ns.
`c1ccc(-c2nc(-c3ccccc3)nc(-c3ccc(-n4c5ccccc5c5ccc6c7ccccc7n(-c7ccccc7)c6c54)cc3)n2)cc1`: the fluorescence lifetime (in O=P(c1ccccc1)(c1ccccc1)c1ccc2oc3ccc(P(=O)(c4ccccc4)c4ccccc4)cc3c2c1) is 11.9 ns.
Regarding `c1csc(-c2ccc(-c3cccs3)s2)c1`, the fluorescence lifetime by setting is: (in CC#N) 0.2 ns; (in ClCCl) 0.17 ns.
For the compound `F[B-]1(F)OC(c2ccccc2)=Cc2cc3[n+](c[n+]21)[B-](F)(F)OC(c1ccccc1)=C3`, the fluorescence lifetime (in ClCCl) was 1.4 ns.
As for `N#Cc1cccc2ccccc12`, the fluorescence lifetime stood at 15.9 ns (in C1CCCCC1); 11 ns (in C1CCOC1); 17.7 ns (in CCCCCCC); 12.9 ns (in CCCCOC(C)=O); 12.8 ns (in CCCOC(C)=O); 11.9 ns (in CCOC(C)=O). The fluorescence lifetime by setting is: (in CCOCC) 13.7 ns; (in Cc1ccccc1) 12.8 ns.
Compound `CCCCCCCCCCCn1cccc1C1=[N+]2C(=Cc3c(C)cc(C)n3[B-]2(F)F)c2ccccc21` had a fluorescence lifetime (in ClCCl) of 8.89 ns.
